The source of these data is EP1012175B1, “A PEPTIDE WITH AN AFFINITY FOR CLOTTING FACTOR VIII” (Octapharma AG, priority 1997, dated 2003).

The test system of assay [1] is pdFVIII (Faktor VIII aus Plasma). The assay can be described thus: Membrane spot binding test: immobilised peptides incubated with plasma-derived factor VIII (Octavi), detected with anti-FVIII antibodies. Set-up: species or system human. The following applies: peptide immobilised on membrane; Octavi 240 Units in 10 ml PBS pH 7.0 with 1% BSA, 2 h; binders appear as coloured spots. How it is done:
(§1) Die Peptide Seq. Id. No. 55 bis 90 wurden auf einer Membran immobilisiert. Nach Äquilibrieren mit PBS Puffer pH 7.0 wurde eine Membran mit Faktor VIII Octavi® (240 Units in 10 ml PBS pH 7.0 mit 1% BSA), eine andere mit Kogenate® (250 U in 10 ml PBS, pH 7.0 mit 1% BSA) und eine nur mit PBS, pH 7.0 mit 1% BSA für zwei Stunden inkubiert. Die mit den Peptiden besetzten Membranen wurden sorgfältig mit PBS Puffer pH 7.0 gewaschen und anschließend mit den Anti-FVIII Antikörpern (Chemicon International Inc., MAB038, Sera-Lab MAS 530, MAS 531, MAS 532) für eine Stunde versetzt. Nach Waschen und Inkubieren mit Anti-Maus-IgG/alkalische Phosphatase Konjugat (1:1000, Sigma Chemicals, A-4338) wurde mit Hilfe von NBT und BCIP in 0,1 M Trispuffer, pH 9,2, entwickelt. Faktor VIII bindende Peptide erschienen als gefärbte Spots. Die Kontrollmembran (nur mit PBS pH 7.0 ohne Faktor VIII) wurde mit den beiden anderen verglichen.

The test system of assay [2] is rekombinanten Faktor VIII. The assay can be described thus: Membrane spot binding test: immobilised peptides incubated with recombinant factor VIII (Kogenate), detected with anti-FVIII antibodies. The following applies: peptide immobilised on membrane; Kogenate 250 U in 10 ml PBS pH 7.0 with 1% BSA, 2 h; binders appear as coloured spots. As to the method: as §1
For assay [3], the system named is pdFVIII. The assay can be described thus: Affinity chromatography of pdFVIII on peptide membranes; eluates analysed by SDS-PAGE and Western blot. In kind it is binding, human. The following applies: for Banden in der SDS-PAGE unter reduzierenden Bedingungen und Silberfärbung / Western Blot des Eluates: eluate of pdFVIII run; for Banden in der SDS-PAGE unter reduzierenden Bedingungen und Silberfärbung / Elutionspeak: compared with (βAla)2 control membrane; for Western Blot des Eluates: control membrane weakly positive; for Eignung für die Affinitätschromatographie von pdFVIII: general statement of the description; for Elutionspeak: pdFVIII, elution with 0,1 M Glycin pH 3.0. An excerpt: (§2) Aus Membranen, auf die die jeweiligen Peptide immobilisiert wurden, wurden jeweils 30 Scheiben mit einem Durchmesser von 11 mm ausgestanzt. Diese wurden in eine HR 10 Säule (Pharmacia Biotechnology, Uppsala, Schweden) gepackt und zwischen zwei Stempeln fixiert.
(§3) Für alle chromatographischen Experimente wurde das Chromatographiesystem ProSys (Biosepra Inc. Marlborough, USA) verwendet.
(§4) PBS Puffer pH 7.0 wurde als Äquilibrierungs- und Waschpuffer verwendet. Für die Elution wurde ein 0,1 M Glycinpuffer pH 3.0 angewandt. Die Flußgeschwindigkeit betrug bei allen Versuchen 0,1 ml/min.
Lyophilisierter Faktor VIII aus Plasma wurde in 11 ml destilliertem Wasser zu einer Konzentration von 90 Units/ml aufgelöst. Davon wurden jeweils 4 ml mit einer Flußrate von 0,1 ml/min aufgetragen. Anschließend wurden die Affinitätsträger mit PBS-Puffer pH 7.0 gewaschen bis das UV Signal (280 nm) wieder die Basislinie erreichte. Das gebundene Material wurde mit 0,1 M Glycin pH 3.0 eluiert. Die gesammelten Fraktionen wurde mittels SDS-Page unter reduzierenden Bedingungen und Western Blot analysiert. Auf diese Weise wurden Peptide und der ßAla-ßAla-Blank auf ihre Fähigkeit Faktor VIII aus dem Octavipräparat zu binden untersucht.
(§5) Der Durchlauf und die Eluate aller Läufe wurden gesammelt und mittels SDS-PAGE unter reduzierenden Bedingungen und Western-Blot analysiert.
Für die Auftrennung wurden 4 bis 20% Tris-Glycin Gele von Novex verwendet. Die Proben wurden mit SDS-Probepuffer (1,5 M Tris HCl pH 8.45, 1,2 ml Glycerin, 0,4 g SDS, 0,1% Coomassie Blue, 0,1% Phenol Rot pro 10 ml), und 5% ß-Mercaptoethanol versetzt und über Nacht bei 4°C inkubiert. Nach der Trennung wurden die Gele silbergefärbt und eingescannt.
Nach Beendigung der elektrophoretischen Trennung wurden die Gele auf eine Nitrocellulose Membran bei 200 mA konstant für zwei Stunden elektrogeblottet. Anschließend wurde die Membran mit PBS + 3% BSA für zwei Stunden blockiert. Nach Waschen mit PBS Puffer erfolgte die Zugabe der Anti-FVIII Antikörpermischung (Chemicon International Inc., MAB038, Sera-Lab MAS 530, MAS 531, MAS 532) für zwei Stunden. Nach Waschen mit PBS wurde mit Anti Maus IgG alkalische Phosphatase (1:1000, Sigma Chemicals, A-3438) für eine Stunde inkubiert. Die Entwicklung erfolgte mit 0,1 M Tris, pH 9.2, NBT und BCIP.
(§6) Die Affinitätschromatographie wurde wie im Beispiel 1 beschrieben, durchgeführt.
(Immunoblotting shows a protein as a band on a membrane.)

Assay [4] has as its system rekombinantem Faktor VIII aus Kogenate®. The assay can be described thus: Affinity chromatography of recombinant factor VIII (Kogenate) on peptide membranes; eluates analysed by Western blot. In kind it is binding. The following applies: for Western Blot der Eluate: eluate of rFVIII (Kogenate) run, control membrane also positive; for Elutionspeak: rFVIII (Kogenate), elution with 0,1 M Glycin pH 3.0, compared with ßAla-ßAla control membrane.
Source text: as §2, §3, §4
Die Bindung von rekombinantem Faktor VIII wurde mittels Kogenate® (Firma Bayer) untersucht. Jeweils 400 µl des Präparates (200 Units) wurden mit 1.400 µl destilliertem Wasser verdünnt und anschließend mit einer Flußrate von 0,1 ml/min auf den Affinitätsträger aufgetragen. Das Waschen erfolgte wiederum mit PBS, pH 7.0 und die darauf folgende Elution mit 0,1 M Glycin, pH 3.0. Die Fraktionen wurden mittels SDS-Page unter reduzierenden Bedingungen und Western-Blot analysiert.
as §5
Für die Auftrennung wurden 4 bis 20% Tris-Glycin Gele von Novex verwendet. […] Nach der Trennung wurden die Gele silbergefärbt und eingescannt.
Nach Beendigung der elektrophoretischen Trennung wurden die Gele auf eine Nitrocellulose Membran bei 200 mA konstant für zwei Stunden elektrogeblottet. Anschließend wurde die Membran mit PBS + 3% BSA für zwei Stunden blockiert. […] Die Entwicklung erfolgte mit 0,1 M Tris, pH 9.2, NBT und BCIP.
as §6

Entries after “also recorded” stand apart in the source; their conditions may differ.

Take 76 (EWKSEFEF) [compound 76]: in assay [1], the “Bindung zu pdFVIII (Faktor VIII aus Plasma)” value was “Bindung zu pdFVIII”.

As to 84 (EYIKWEEF) [compound 84], the “Bindung zu pdFVIII (Faktor VIII aus Plasma)” value in assay [1] is on record as “auffallende Affinität”. In addition, the “Bindung von rekombinantem Faktor VIII” value in assay [2] was “auffallende Affinität”.

For the substance 66 (VMKSWEEF) [compound 66], the “Bindung zu pdFVIII (Faktor VIII aus Plasma)” value in assay [1] is recorded as “auffallende Affinität; also recorded: Bindung zu pdFVIII”. Also, in assay [2], the “Bindung von rekombinantem Faktor VIII” value is given as “auffallende Affinität; also recorded: binden rekombinanten Faktor VIII”. Further, in assay [3], the “Banden in der SDS-PAGE unter reduzierenden Bedingungen und Silberfärbung” value is “intensiver gefärbte Banden”, the “Western Blot des Eluates” value was “positiv”, the “Eignung für die Affinitätschromatographie von pdFVIII” value is “eignen sich insbesondere” and the Elutionspeak entry was “größere Elutionspeaks”. Also, in assay [4], the “Western Blot der Eluate” value is “positiv” and the Elutionspeak entry is recorded as “deutlich größer”. Further, the “Eignung für die Affinitätschromatographie von rFVIII (rekombinantem Faktor VIII)” value in assay [4] (general statement of the description) is given as “eignen sich insbesondere”.

As for 78 (EWKSWEEF) [compound 78], the “Bindung zu pdFVIII (Faktor VIII aus Plasma)” value in assay [1] was “auffallende Affinität; also recorded: Bindung zu pdFVIII”. In assay [2], the “Bindung von rekombinantem Faktor VIII” value is “auffallende Affinität”.

In the case of “EYKSWEEF [Seq. Id. No. 90, Peptid, 8 Aminosäuren]”, the “Bindung zu pdFVIII (Faktor VIII aus Plasma)” value in assay [1] is reported as “auffallende Affinität; also recorded: Bindung zu pdFVIII”. In addition, the “Bindung von rekombinantem Faktor VIII” value in assay [2] is recorded as “auffallende Affinität”. Also, in assay [4], the “Western Blot der Eluate” value is reported as “positiv” and the Elutionspeak entry was “deutlich größer”.

In the case of 71 (EWIKWEYC) [compound 71], the “Bindung zu pdFVIII (Faktor VIII aus Plasma)” value in assay [1] is recorded as “Bindung zu pdFVIII”. Also, the “Bindung von rekombinantem Faktor VIII” value in assay [2] was “binden rekombinanten Faktor VIII”.

For the substance 72 (EWIKWEEF) [compound 72], the “Bindung zu pdFVIII (Faktor VIII aus Plasma)” value in assay [1] is listed as “auffallende Affinität; also recorded: Bindung zu pdFVIII”. The “Bindung von rekombinantem Faktor VIII” value in assay [2] is “auffallende Affinität; also recorded: binden rekombinanten Faktor VIII”. Moreover, in assay [3], the “Banden in der SDS-PAGE unter reduzierenden Bedingungen und Silberfärbung” value was “intensiver gefärbte Banden”, the “Western Blot des Eluates” value is recorded as “positiv”, the “Eignung für die Affinitätschromatographie von pdFVIII” value is listed as “eignen sich insbesondere” and the Elutionspeak entry is reported as “größere Elutionspeaks”.

Regarding 61 (VMKSCEYC) [compound 61], the “Bindung zu pdFVIII (Faktor VIII aus Plasma)” value in assay [1] is given as “Bindung zu pdFVIII”. Moreover, in assay [2], the “Bindung von rekombinantem Faktor VIII” value is on record as “keinen rekombinanten Faktor VIII”.

Turning to 89 (EYKSWEYC) [compound 89], the “Bindung zu pdFVIII (Faktor VIII aus Plasma)” value in assay [1] was “auffallende Affinität; also recorded: Bindung zu pdFVIII”. For the same substance, the “Bindung von rekombinantem Faktor VIII” value in assay [2] is “auffallende Affinität”.

Regarding 77 (EWKSWEYC) [compound 77], the “Bindung zu pdFVIII (Faktor VIII aus Plasma)” value in assay [1] is given as “Bindung zu pdFVIII”.

As to 68 (EWIKCEEF) [compound 68], the “Bindung von rekombinantem Faktor VIII” value in assay [2] is “binden rekombinanten Faktor VIII”.
